Structures are written as SMILES. Structures can show the parent of a compound that is named as a salt.

For the assay, the target named is rat TRPV1 (Rattus norvegicus (Rat), UniProt O35433). The settings on record: read-out: Rat IC50.
Chain of rat TRPV1 (O35433 whole entry): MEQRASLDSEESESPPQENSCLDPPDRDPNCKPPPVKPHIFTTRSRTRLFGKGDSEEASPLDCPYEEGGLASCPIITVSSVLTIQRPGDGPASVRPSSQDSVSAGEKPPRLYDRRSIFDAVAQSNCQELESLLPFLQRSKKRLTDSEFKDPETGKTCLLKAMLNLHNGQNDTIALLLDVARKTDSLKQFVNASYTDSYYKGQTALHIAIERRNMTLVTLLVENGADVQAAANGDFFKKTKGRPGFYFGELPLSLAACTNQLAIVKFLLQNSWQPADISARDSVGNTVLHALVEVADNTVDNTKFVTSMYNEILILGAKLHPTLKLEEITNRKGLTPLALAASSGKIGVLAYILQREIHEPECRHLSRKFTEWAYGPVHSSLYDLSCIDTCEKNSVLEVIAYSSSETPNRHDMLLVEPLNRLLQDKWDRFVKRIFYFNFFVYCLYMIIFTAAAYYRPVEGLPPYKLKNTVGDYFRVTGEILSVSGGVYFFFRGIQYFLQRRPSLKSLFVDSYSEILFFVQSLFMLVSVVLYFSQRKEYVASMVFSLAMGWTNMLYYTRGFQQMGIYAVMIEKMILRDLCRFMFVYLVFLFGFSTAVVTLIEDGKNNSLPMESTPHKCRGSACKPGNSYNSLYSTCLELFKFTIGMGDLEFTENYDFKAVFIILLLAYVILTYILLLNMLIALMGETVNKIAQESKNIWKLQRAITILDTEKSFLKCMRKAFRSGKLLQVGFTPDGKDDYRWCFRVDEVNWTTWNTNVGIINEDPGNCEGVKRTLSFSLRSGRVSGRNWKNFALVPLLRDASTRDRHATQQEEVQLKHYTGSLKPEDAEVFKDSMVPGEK
As for `CS(=O)(=O)c1nc2c(c(Nc3ccc(C(F)(F)F)cc3)n1)CCN(c1ncccc1C(F)(F)F)CC2` [Example 53, [2-Methanesulfonyl-7-(3-trifluoromethyl-pyridin-2-yl)-6,7,8,9-tetrahydro-5H-pyrimido[4,5-d]azepin-4-yl]-(4-trifluoromethyl-phenyl)-amine], the IC50 was more than 6700 nM.
Under `FC(F)(F)c1ccc(Nc2nc(Nc3ccccc3)nc3c2CCN(c2ncccc2C(F)(F)F)CC3)cc1` [Example 54, N^2-Phenyl-N^4-(4-trifluoromethyl-phenyl)-7-(3-trifluoromethyl-pyridin-2-yl)-6,7,8,9-tetrahydro-5H-pyrimido[4,5-d]azepine-2,4-diamine] stands 230 nM; under `FC(F)(F)c1ccc(Nc2nc(NC3CC3)nc3c2CCN(c2ncccc2C(F)(F)F)CC3)cc1` [Example 55B, N^2-Cyclopropyl-N^4-(4-trifluoromethyl-phenyl)-7-(3-trifluoromethyl-pyridin-2-yl)-6,7,8,9-tetrahydro-5H-pyrimido[4,5-d]azepine-2,4-diamine trifluoroacetic acid salt], 150 nM; under `FC(F)(F)c1ccc(Nc2nc(N3CCC3)nc3c2CCN(c2ncccc2C(F)(F)F)CC3)cc1` [Example 56B, [2-Azetidin-1-yl-7-(3-trifluoromethyl-pyridin-2-yl)-6,7,8,9-tetrahydro-5H-pyrimido[4,5-d]azepin-4-yl]-(4-trifluoromethyl-phenyl)-amine trifluoroacetic acid salt], 64 nM.
The value for `OC1CCN(c2nc3c(c(Nc4ccc(C(F)(F)F)cc4)n2)CCN(c2ncccc2C(F)(F)F)CC3)CC1` [Example 59B, 1-[4-(4-Trifluoromethyl-phenylamino)-7-(3-trifluoromethyl-pyridin-2-yl)-6,7,8,9-tetrahydro-5H-pyrimido[4,5-d]azepin-2-yl]-piperidin-4-ol trifluoroacetic acid salt] was 380 nM; that for `CC(C)N1CCN(c2nc3c(c(Nc4ccc(C(F)(F)F)cc4)n2)CCN(c2ncccc2C(F)(F)F)CC3)CC1` [Example 60B, [2-(4-Isopropyl-piperazin-1-yl)-7-(3-trifluoromethyl-pyridin-2-yl)-6,7,8,9-tetrahydro-5H-pyrimido[4,5-d]azepin-4-yl]-(4-trifluoromethyl-phenyl)-amine trifluoroacetic acid salt] was 140 nM.
Under `COc1nc2c(c(Nc3ccc(C(F)(F)F)cc3)n1)CCN(c1ncccc1C(F)(F)F)CC2` [Example 62, [2-Methoxy-7-(3-trifluoromethyl-pyridin-2-yl)-6,7,8,9-tetrahydro-5H-pyrimido[4,5-d]azepin-4-yl]-(4-trifluoromethyl-phenyl)-amine] stands 53 nM; under `CN(C)c1nc2c(c(Nc3ccc(Cl)c(Cl)c3)n1)CCN(c1ncccc1C(F)(F)F)CC2` [Example 63B, N^4-(3,4-Dichloro-phenyl)-N^2,N^2-dimethyl-7-(3-trifluoromethyl-pyridin-2-yl)-6,7,8,9-tetrahydro-5H-pyrimido[4,5-d]azepine-2,4-diamine trifluoroacetic acid salt], 2500 nM; under `CN(C)c1nc2c(c(Nc3ccc(C(C)(C)C#N)cc3)n1)CCN(c1ncccc1C(F)(F)F)CC2` [Example 65B, 2-{4-[2-Dimethylamino-7-(3-trifluoromethyl-pyridin-2-yl)-6,7,8,9-tetrahydro-5H-pyrimido[4,5-d]azepin-4-ylamino]-phenyl}-2-methyl-propionitrile trifluoroacetic acid salt], 650 nM.
With `CC(C)(C)c1ccc(Nc2nc(CN3CCCCC3)nc3c2CCN(c2ncccc2C(F)(F)F)CC3)cc1` [Example 66B, (4-tert-Butyl-phenyl)-[2-piperidin-1-ylmethyl-7-(3-trifluoromethyl-pyridin-2-yl)-6,7,8,9-tetrahydro-5H-pyrimido[4,5-d]azepin-4-yl]-amine trifluoroacetic acid salt], the half-maximal inhibitory concentration (IC50) stood at 930 nM.
Under `COCc1nc2c(c(Nc3ccc(C(C)(C)C)cc3)n1)CCN(c1ncccc1C(F)(F)F)CC2` [Example 67B, (4-tert-Butyl-phenyl)-[2-methoxymethyl-7-(3-trifluoromethyl-pyridin-2-yl)-6,7,8,9-tetrahydro-5H-pyrimido[4,5-d]azepin-4-yl]-amine trifluoroacetic acid salt] stands 34 nM; under `CN(C)c1nc2c(c(Nc3ccc4c(c3)OCCO4)n1)CCN(c1ncccc1C(F)(F)F)CC2` [Example 68B, N^4-(2,3-Dihydro-benzo[1,4]dioxin-6-yl)-N^2,N^2-dimethyl-7-(3-trifluoromethyl-pyridin-2-yl)-6,7,8,9-tetrahydro-5H-pyrimido[4,5-d]azepine-2,4-diamine trifluoroacetic acid salt], 3200 nM.
Consider `Cc1nc2c(c(Nc3ccc(C(F)(F)F)cn3)n1)CCN(c1ncccc1C(F)(F)F)CC2` [Example 69, [2-Methyl-7-(3-trifluoromethyl-pyridin-2-yl)-6,7,8,9-tetrahydro-5H-pyrimido[4,5-d]azepin-4-yl]-(5-trifluoromethyl-pyridin-2-yl)-amine], for which the IC50 stood at 500 nM.
The value for `CN(C)c1nc2c(c(NCc3ccccc3)n1)CCN(c1ncccc1C(F)(F)F)CC2` [Example 70B, N^4-Benzyl-N^2,N^2-dimethyl-7-(3-trifluoromethyl-pyridin-2-yl)-6,7,8,9-tetrahydro-5H-pyrimido[4,5-d]azepine-2,4-diamine trifluoroacetic acid salt] was 4400 nM; that for `CN(C)c1nc2c(c(Nc3ccc([N+](=O)[O-])cc3)n1)CCN(c1ncccc1C(F)(F)F)CC2` [Example 72B, N^2,N^2-Dimethyl-N^4-(4-nitro-phenyl)-7-(3-trifluoromethyl-pyridin-2-yl)-6,7,8,9-tetrahydro-5H-pyrimido[4,5-d]azepine-2,4-diamine trifluoroacetic acid salt] was 180 nM.
Under `CSc1nc2c(c(Nc3ccc(C(F)(F)F)cn3)n1)CCN(c1ncccc1C(F)(F)F)CC2` [Example 74B, [2-Methylsulfanyl-7-(3-trifluoromethyl-pyridin-2-yl)-6,7,8,9-tetrahydro-5H-pyrimido[4,5-d]azepin-4-yl]-(5-trifluoromethyl-pyridin-2-yl)-amine trifluoroacetic acid salt] stands 3900 nM; under `CSc1nc2c(c(Nc3ccc(C(F)(F)F)nc3)n1)CCN(c1ncccc1C(F)(F)F)CC2` [Example 75B, [2-Methylsulfanyl-7-(3-trifluoromethyl-pyridin-2-yl)-6,7,8,9-tetrahydro-5H-pyrimido[4,5-d]azepin-4-yl]-(6-trifluoromethyl-pyridin-3-yl)-amine trifluoroacetic acid salt], 40 nM.
`COC(=O)c1ccc(Nc2nc(N(C)C)nc3c2CCN(c2ncccc2C(F)(F)F)CC3)cc1` [Example 77B, 4-[2-Dimethylamino-7-(3-trifluoromethyl-pyridin-2-yl)-6,7,8,9-tetrahydro-5H-pyrimido[4,5-d]azepin-4-ylamino]-benzoic acid methyl ester trifluoroacetic acid salt]: the IC50 is 580 nM.
Under `CN(C)c1ccc(Nc2nc(N(C)C)nc3c2CCN(c2ncccc2C(F)(F)F)CC3)cc1` [Example 79B, N^4-(4-Dimethylamino-phenyl)-N^2,N^2-dimethyl-7-(3-trifluoromethyl-pyridin-2-yl)-6,7,8,9-tetrahydro-5H-pyrimido[4,5-d]azepine-2,4-diamine trifluoroacetic acid salt] stands 1300 nM.
Under `COCc1nc2c(c(Nc3ccc(C(F)(F)F)c(Cl)c3)n1)CCN(c1ncccc1C(F)(F)F)CC2` [Example 80B, (3-Chloro-4-trifluoromethyl-phenyl)-[2-methoxymethyl-7-(3-trifluoromethyl-pyridin-2-yl)-6,7,8,9-tetrahydro-5H-pyrimido[4,5-d]azepin-4-yl]-amine trifluoroacetic acid salt] stands 130 nM; under `COc1ccc(Nc2nc(N(C)C)nc3c2CCN(c2ncccc2C(F)(F)F)CC3)cc1` [Example 81B, N^4-(4-Methoxy-phenyl)-N^2,N^2-dimethyl-7-(3-trifluoromethyl-pyridin-2-yl)-6,7,8,9-tetrahydro-5H-pyrimido[4,5-d]azepine-2,4-diamine trifluoroacetic acid salt], 970 nM; under `CN(C)c1nc2c(c(NC3Cc4ccccc4C3)n1)CCN(c1ncccc1C(F)(F)F)CC2` [Example 82B, N^4-Indan-2-yl-N^2,N^2-dimethyl-7-(3-trifluoromethyl-pyridin-2-yl)-6,7,8,9-tetrahydro-5H-pyrimido[4,5-d]azepine-2,4-diamine trifluoroacetic acid salt], 2800 nM.
Under `Cc1cc(N)cnc1N1CCc2nc(C(C)C)nc(Nc3ccc(C(F)(F)F)cc3)c2CC1` [Example 83, [7-(5-Amino-3-methyl-pyridin-2-yl)-2-isopropyl-6,7,8,9-tetrahydro-5H-pyrimido[4,5-d]azepin-4-yl]-(4-trifluoromethyl-phenyl)-amine] stands 990 nM; under `CC(C)c1nc2c(c(Nc3ccc(C(F)(F)F)cc3)n1)CCN(c1ccccc1N)CC2` [Example 84, [7-(2-Amino-phenyl)-2-isopropyl-6,7,8,9-tetrahydro-5H-pyrimido[4,5-d]azepin-4-yl]-(4-trifluoromethyl-phenyl)-amine], more than 20000 nM; under `CC(C)c1nc2c(c(Nc3ccc(C(F)(F)F)cc3)n1)CCN(c1ccccc1[N+](=O)[O-])CC2` [Example 85, [2-Isopropyl-7-(2-nitro-phenyl)-6,7,8,9-tetrahydro-5H-pyrimido[4,5-d]azepin-4-yl]-(4-trifluoromethyl-phenyl)-amine], more than 6700 nM.
Turning to `CC(C)c1nc2c(c(Nc3ccc(C(F)(F)F)cc3)n1)CCN(c1ncccc1N)CC2` [Example 86, [7-(3-Amino-pyridin-2-yl)-2-isopropyl-6,7,8,9-tetrahydro-5H-pyrimido[4,5-d]azepin-4-yl]-(4-trifluoromethyl-phenyl)-amine], the IC50 was 850 nM.
The value for `Cc1cc([N+](=O)[O-])cnc1N1CCc2nc(C(C)C)nc(Nc3ccc(C(F)(F)F)cc3)c2CC1` [Example 87, [2-Isopropyl-7-(3-methyl-5-nitro-pyridin-2-yl)-6,7,8,9-tetrahydro-5H-pyrimido[4,5-d]azepin-4-yl]-(4-trifluoromethyl-phenyl)-amine] was 350 nM.

Values taken from patent US9422293B2 (priority 2006, dated 2016).
